Data: PubChem BioAssay AID256 (DTP/NCI, 2004)
Where “and” joins values, the source holds several entries; their conditions need not be identical. Equal values may be shown once. Toxic doses and inconclusive results are not listed.

System: CD2F1 mice, L1210 leukemia ip, survival T/C
Experiment: NCI In Vivo Anticancer Drug Screen. Data for tumor model L1210 Leukemia (intraperitoneal) in CD2F1 (CDF1) mice
Details: higher = longer survival
Protocol: The antitumor activity of compounds was measured in mice bearing transplantable tumors. Survival or tumor size were measured and the results are expressed as the measurement made in the treated group (T) divided by the measurement made in the vehicle treated control group (C). The tumor model used in this assay is L1210 Leukemia (intraperitoneal) in CD2F1 (CDF1) mice

[1] = endpoint: mean survival time, dose: 100.0 mg/kg/injection, schedule: Q01DX001 (ip), vehicle: other
[2] = endpoint: mean survival time, dose: 200.0 mg/kg/injection, schedule: Q01DX001 (ip), vehicle: other
[3] = endpoint: mean survival time, dose: 400.0 mg/kg/injection, schedule: Q01DX001 (ip), vehicle: other

## O/N=C/c1ccc[nH]1
endpoint: mean survival time, dose: 100.0 mg/kg/injection, schedule: Q04DX003 (ip), vehicle: saline with Tween-80
  T/C: 96 % of control
endpoint: mean survival time, dose: 200.0 mg/kg/injection, schedule: Q04DX003 (ip), vehicle: saline with Tween-80
  T/C: 96 % of control
endpoint: mean survival time, dose: 400.0 mg/kg/injection, schedule: Q04DX003 (ip), vehicle: saline with Tween-80
  T/C: 96 % of control

## CCCC(=O)c1cccc([N+](=O)[O-])c1
[1]
  T/C: 96 % of control
endpoint: mean survival time, dose: 100.0 mg/kg/injection, schedule: Q04DX002 (ip), vehicle: other
  T/C: 98 % of control
endpoint: mean survival time, dose: 100.0 mg/kg/injection, schedule: Q04DX003 (ip), vehicle: other
  T/C: 103 % of control
[2]
  T/C: 93 % of control
endpoint: mean survival time, dose: 200.0 mg/kg/injection, schedule: Q04DX002 (ip), vehicle: other
  T/C: 100 % of control
endpoint: mean survival time, dose: 200.0 mg/kg/injection, schedule: Q04DX003 (ip), vehicle: other
  T/C: 100 % of control
[3]
  T/C: 94 % of control
endpoint: mean survival time, dose: 400.0 mg/kg/injection, schedule: Q04DX002 (ip), vehicle: other
  T/C: 98 % of control
endpoint: mean survival time, dose: 400.0 mg/kg/injection, schedule: Q04DX003 (ip), vehicle: other
  T/C: 101 % of control
endpoint: mean survival time, dose: 800.0 mg/kg/injection, schedule: Q01DX009 (ip), vehicle: other
  T/C: 91 % of control and 94 % of control and 95 % of control

## C/C1=C/C2=CC(C)C[C@@H]2C(=O)[C@]2(C)C(=O)CC(C)(C)[C@H]2CC1=O (some centres not stated)
endpoint: mean survival time, dose: 0.13 mg/kg/injection, schedule: Q01DX009 (ip), vehicle: Klucel (hydroxypropylcellulose) (HPC)
  T/C: 98 % of control
endpoint: mean survival time, dose: 0.25 mg/kg/injection, schedule: Q01DX009 (ip), vehicle: Klucel (hydroxypropylcellulose) (HPC)
  T/C: 95 % of control
endpoint: mean survival time, dose: 0.5 mg/kg/injection, schedule: Q01DX009 (ip), vehicle: Klucel (hydroxypropylcellulose) (HPC)
  T/C: 93 % of control
endpoint: mean survival time, dose: 1.0 mg/kg/injection, schedule: Q01DX009 (ip), vehicle: Klucel (hydroxypropylcellulose) (HPC)
  T/C: 90 % of control

## O=P(NCCCO)(OCc1ccccc1)N(CCCl)CCCl (configuration not stated)
endpoint: mean survival time, dose: 15.63 mg/kg/injection, schedule: Q01DX001 (ip), vehicle: DMSO
  T/C: 101 % of control
endpoint: mean survival time, dose: 31.25 mg/kg/injection, schedule: Q01DX001 (ip), vehicle: DMSO
  T/C: 98 % of control
endpoint: mean survival time, dose: 62.5 mg/kg/injection, schedule: Q01DX001 (ip), vehicle: DMSO
  T/C: 101 % of control
endpoint: mean survival time, dose: 125.0 mg/kg/injection, schedule: Q01DX001 (ip), vehicle: DMSO
  T/C: 104 % of control
endpoint: mean survival time, dose: 250.0 mg/kg/injection, schedule: Q01DX001 (ip), vehicle: DMSO
  T/C: 116 % of control
endpoint: mean survival time, dose: 1000.0 mg/kg/injection, schedule: Q01DX001 (ip), vehicle: DMSO
  T/C: 173 % of control
endpoint: mean survival time, dose: 1000.0 mg/kg/injection, schedule: Q01DX001 (ip), vehicle: other
  T/C: 178 % of control

## Nc1nc(F)nc2c1ncn2C1CC(O)C(CO)O1 (configuration not stated)
endpoint: mean survival time, dose: 75.0 mg/kg/injection, schedule: Q01DX001 (ip), vehicle: saline
  T/C: 105 % of control
[1]
  T/C: 113 % of control
endpoint: mean survival time, dose: 150.0 mg/kg/injection, schedule: Q01DX001 (ip), vehicle: saline
  T/C: 109 % of control
[2]
  T/C: 110 % of control
[3]
  T/C: 107 % of control
endpoint: median survival time, dose: 25.0 mg/kg/injection, schedule: Q03HX024 (ip), vehicle: saline with Tween-80
  T/C: 219 % of control
endpoint: median survival time, dose: 30.0 mg/kg/injection, schedule: Q03HX024 (ip), vehicle: saline with Tween-80
  T/C: 234 % of control
endpoint: median survival time, dose: 30.0 mg/kg/injection, schedule: Q03HX024 (ip), vehicle: saline
  T/C: 211 % of control
endpoint: median survival time, dose: 35.0 mg/kg/injection, schedule: Q03HX024 (ip), vehicle: saline with Tween-80
  T/C: 250 % of control
endpoint: median survival time, dose: 40.0 mg/kg/injection, schedule: Q03HX024 (ip), vehicle: saline with Tween-80
  T/C: 158 % of control
endpoint: median survival time, dose: 40.0 mg/kg/injection, schedule: Q03HX024 (ip), vehicle: saline
  T/C: 227 % of control

## O=C(Nc1ccc([N+](=O)[O-])cc1)OCC#CC#CCOC(=O)Nc1ccc([N+](=O)[O-])cc1
endpoint: mean survival time, dose: 100.0 mg/kg/injection, schedule: Q04DX003 (ip), vehicle: Klucel (hydroxypropylcellulose) (HPC)
  T/C: 94 % of control
endpoint: mean survival time, dose: 200.0 mg/kg/injection, schedule: Q04DX003 (ip), vehicle: Klucel (hydroxypropylcellulose) (HPC)
  T/C: 94 % of control

## Nc1nc(N)c2nc(CSc3ccc(C(=O)NC(CCC(=O)O)C(=O)O)cc3)cnc2n1 (configuration not stated)
endpoint: mean survival time, dose: 1.5 mg/kg/injection, schedule: Q01DX009 (ip), vehicle: distilled water + Tween-80
  T/C: 96 % of control
endpoint: mean survival time, dose: 3.0 mg/kg/injection, schedule: Q01DX009 (ip), vehicle: distilled water + Tween-80
  T/C: 86 % of control
endpoint: mean survival time, dose: 6.0 mg/kg/injection, schedule: Q01DX009 (ip), vehicle: distilled water + Tween-80
  T/C: 100 % of control and 101 % of control
endpoint: mean survival time, dose: 12.0 mg/kg/injection, schedule: Q01DX009 (ip), vehicle: distilled water + Tween-80
  T/C: 115 % of control and 110 % of control
endpoint: mean survival time, dose: 24.0 mg/kg/injection, schedule: Q01DX009 (ip), vehicle: distilled water + Tween-80
  T/C: 117 % of control and 120 % of control
